Measured values published in PMC10475101, “Selective steroidogenic cytochrome P450 haem iron ligation by steroid-derived isonitriles” (Communications Chemistry, 2023).
“Also recorded” adds a separate entry of the source.

What was measured:
[1] = biological target: T1, CYP3A4 (Homo sapiens, UniProt P08684); assay: in vitro; type: binding
T1 construct: made in house
Protocol: (§1) (Adapted from DeVore, et al.)[25] Ligand interaction with the heme iron was evaluated by titrating ligands into a cuvette containing purified CYP17A1[14], CYP2D6 L230D/L231R[26], or CYP3A4[27] and measured using a UV-visible scanning spectrophotometer. Enzyme was diluted to 0.2 µM in 100 mM potassium phosphate buffer (pH 7.4), 20% glycerol, and 100 mM sodium chloride and divided equally between two 5 mL cuvettes to evaluate high-affinity binding. Ligands dissolved in dimethylsulfoxide (DMSO) were added to the sample cuvette and an equal volume of DMSO to the reference cuvette. Difference spectra were recorded from 300 to 500 nm after equilibration of enzyme and ligand. Binding to the enzyme was measured as the difference in maximal and minimal absorbance: A387—A419 for pregnanolone and 3-formyl pregnanolone, and A435—A393 for compound 1 with CYP17A1; A434—A414 for compound 1 with CYP3A4 and CYP2D6. The dissociation constant and maximum spectral change were calculated using tight-binding or quadratic equation. All data fitting was accomplished using GraphPad Prism 9. Details of fitting are provided in Supplementary Information, and numerical data used to generate graphs in Figs. 2, 4 and 5 are provided in Supplementary Data 3 in Excel format.

[2] = biological target: CYP106A2 (Priestia megaterium, UniProt Q06069); assay: Absorbance difference spectra titration of CYP106A2; type: binding, bacterial; details: 1 µM CYP106A2; for difference spectrum increase / λmax on binding to CYP106A2: 393 nm = type I, 435 nm = heme Fe-isonitrile bond
Sequence of CYP106A2 (Q06069 whole entry): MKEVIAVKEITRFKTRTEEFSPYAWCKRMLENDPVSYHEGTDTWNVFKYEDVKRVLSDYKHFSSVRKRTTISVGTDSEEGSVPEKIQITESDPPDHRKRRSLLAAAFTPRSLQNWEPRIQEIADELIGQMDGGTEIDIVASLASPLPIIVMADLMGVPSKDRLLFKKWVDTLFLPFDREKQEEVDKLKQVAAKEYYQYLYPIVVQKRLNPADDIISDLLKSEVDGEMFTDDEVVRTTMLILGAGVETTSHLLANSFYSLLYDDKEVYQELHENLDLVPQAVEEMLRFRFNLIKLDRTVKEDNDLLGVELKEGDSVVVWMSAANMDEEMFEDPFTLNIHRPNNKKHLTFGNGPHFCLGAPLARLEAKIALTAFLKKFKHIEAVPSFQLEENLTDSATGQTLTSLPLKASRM
Protocol: Fig. 5 CYP106A2 interaction with steroidal isonitriles. […] Maximum concentration of 2 (light blue trace) is 20 µM. […] Maximum concentration of 4 is ~10 µM (blue trace). C Overlay of 800 MHz ^1H,^15N-TROSY-HSQC spectra of ^15N-Gly-labeled CYP106A2 with levopimaric acid p-benzoquinone Diels-Alder adduct bound after reduction with sodium dithionite and treatment with carbon monoxide (red), or with 7,17-(bis)isonitrile 4 (blue) after anaerobic reduction with sodium dithionite.

[3] = biological target: T2, CYP17A1 (Homo sapiens, UniProt P05093); assay: Ligand binding assay (UV-visible difference spectra titration); details: for Soret peak after titration (heme spectral shift from 417 nm water-bound): ferric CYP17A1, 430 nm = Fe—C isonitrile bond, 424 nm = type II Fe—N
T2 construct: made in house
T2 sequence (P05093 1-508): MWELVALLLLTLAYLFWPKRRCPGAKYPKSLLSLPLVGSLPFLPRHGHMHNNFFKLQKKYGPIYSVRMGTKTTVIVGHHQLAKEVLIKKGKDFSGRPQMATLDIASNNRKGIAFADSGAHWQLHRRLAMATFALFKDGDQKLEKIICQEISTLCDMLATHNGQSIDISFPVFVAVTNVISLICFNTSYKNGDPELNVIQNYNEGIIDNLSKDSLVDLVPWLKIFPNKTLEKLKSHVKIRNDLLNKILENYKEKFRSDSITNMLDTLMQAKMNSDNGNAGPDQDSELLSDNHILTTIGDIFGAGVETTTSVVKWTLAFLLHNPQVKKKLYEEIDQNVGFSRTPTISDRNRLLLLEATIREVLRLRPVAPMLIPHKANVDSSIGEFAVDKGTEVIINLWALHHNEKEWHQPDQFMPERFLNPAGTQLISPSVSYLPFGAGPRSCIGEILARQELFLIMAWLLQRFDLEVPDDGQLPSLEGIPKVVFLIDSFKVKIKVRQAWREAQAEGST
Protocol: as §1

[4] = biological target: T3, CYP17A1 (Homo sapiens, UniProt P05093); assay: biochemical
T3 construct: made in house
T3 sequence (P05093 24-508 limits assumed): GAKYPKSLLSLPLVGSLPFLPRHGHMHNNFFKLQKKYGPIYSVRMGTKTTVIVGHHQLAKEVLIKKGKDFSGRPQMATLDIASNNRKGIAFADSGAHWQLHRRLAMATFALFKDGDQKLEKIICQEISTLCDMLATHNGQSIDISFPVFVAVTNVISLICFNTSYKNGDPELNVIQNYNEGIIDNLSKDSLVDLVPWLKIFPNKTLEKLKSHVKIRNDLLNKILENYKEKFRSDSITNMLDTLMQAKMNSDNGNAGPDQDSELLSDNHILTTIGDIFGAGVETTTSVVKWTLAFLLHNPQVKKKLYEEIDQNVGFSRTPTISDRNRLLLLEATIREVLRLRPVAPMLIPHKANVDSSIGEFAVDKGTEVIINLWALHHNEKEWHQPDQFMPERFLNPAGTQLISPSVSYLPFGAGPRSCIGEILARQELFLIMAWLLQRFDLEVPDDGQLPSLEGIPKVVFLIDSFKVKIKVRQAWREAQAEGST
Protocol: Metabolic activity of CYP17A1 was evaluated by measuring 17α-hydroxylation of progesterone as detected by HPLC with UV detection at 240 nm. A 1:4 ratio of CYP17A1 to recombinant NADPH-cytochrome P450 reductase was mixed and incubated on ice for 20 min. […] Reaction vials were warmed to 37 °C for 3 min, then catalysis was initiated by adding NADPH to a final concentration of 1 mM. After 10 min, metabolism was quenched by adding 300 µL of 20% trichloroacetic acid and placed on ice. The reaction vials were centrifuged to pellet the precipitated protein, then the supernatant was injected onto a C18 column for HPLC identification of product. Metabolite elution was normalized to β-estradiol as an internal standard. A standard curve of known product concentrations was used to convert normalized area under curve to amount of product produced. A four-parameter variable-slope equation was used to fit the data and calculate IC50 values for inhibitors using GraphPad Prism 9.
195 Metabolic activity of CYP17A1 was evaluated by measuring 17α-hydroxylation of progesterone as detected
196 by HPLC with UV detection at 240 nm. A 1:4 ratio of CYP17A1 to recombinant NADPH-cytochrome P450
197 reductase was mixed and incubated on ice for 20 minutes. This mixture was added to buffer (50 mM Tris, pH
199 Reaction vials were warmed to 37 °C for three minutes, then catalysis was initiated by adding NADPH to a
200 final concentration of 1 mM. After 10 minutes, metabolism was quenched by adding 300 µL of 20%
201 trichloroacetic acid and placed on ice. The reaction vials were centrifuged to pellet the precipitated protein,
202 then the supernatant was injected onto a C18 column (Phenomenex, Luna, 50 x 4.6 mm) for HPLC. The 30-
203 minute HPLC method ran at 0.8 mL/min and started with a mobile phase of 60% acetonitrile, 40% water with
204 0.2% acetic acid for five minutes, in creased to 80% acetonitrile over 10 minutes, held at 80% acetonitrile for
205 five minutes, 100% acetonitrile for five minutes, then returned to 60% acetonitrile to prepare for the next
206 sample. Metabolite elution was normalized to β-estradiol as an internal standard. A standard curve of known
207 product concentrations was used to convert normalized area under curve to amount of product produced. A
208 four-parameter variable-slope equation (Y=Ymin + (Ymax-Ymin)/(1+(IC50/X)^(Hill Slope))) was used to fit the data
209 and calculate IC50 values for inhibitors using GraphPad Prism 9.

T1 sequence (P08684 whole entry): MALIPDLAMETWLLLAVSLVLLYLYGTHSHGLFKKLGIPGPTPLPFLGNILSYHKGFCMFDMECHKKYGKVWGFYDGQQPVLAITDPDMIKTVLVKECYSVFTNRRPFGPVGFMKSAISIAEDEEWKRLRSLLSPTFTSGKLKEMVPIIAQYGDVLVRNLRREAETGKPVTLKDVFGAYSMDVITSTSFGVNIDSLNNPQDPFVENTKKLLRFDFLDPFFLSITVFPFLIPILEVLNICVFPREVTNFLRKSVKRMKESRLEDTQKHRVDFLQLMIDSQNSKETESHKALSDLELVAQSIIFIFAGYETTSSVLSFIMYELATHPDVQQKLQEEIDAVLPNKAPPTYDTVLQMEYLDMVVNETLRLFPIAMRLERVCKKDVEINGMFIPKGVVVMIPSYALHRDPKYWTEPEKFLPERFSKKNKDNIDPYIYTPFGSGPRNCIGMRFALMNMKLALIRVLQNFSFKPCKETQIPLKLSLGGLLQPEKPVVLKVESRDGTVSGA

Compound | spectral response / binding mode on CYP106A2 [2] | difference spectrum increase / λmax on binding to CYP106A2 [2] | Soret peak after titration (heme spectral shift from 417 nm water-bound) [3] | also measured
CC(=O)[C@H]1CC[C@H]2[C@@H]3CC[C@H]4C[C@@H](OC=O)CC[C@]4(C)[C@H]3CC[C@]12C [3β-formyl-5α-pregnanalone, reference compound] |  |  |  | Kd fold higher than 20-(R)-1 ([1]; CYP3A4, parent steroid versus 20-(R)-1): ~ 20 fold; Kd ([1]; protein 200 nM, 5 cm cuvette, tight-binding or quadratic equation, Fig. 4B: n = 3, 95% CI 120–215 nM, read-out: dissociation constant (Kd)): ~3200 nM
[C-]#[N+][C@H]1CC[C@H]2[C@@H]3CC[C@H]4C[C@@H](OC=O)CC[C@]4(C)[C@H]3CC[C@]12C [Compound 2] | weak type I (substrate-like) blue shift | 393 nm | 420 nm | 
[C-]#[N+][C@H]1CC[C@H]2[C@@H]3CC=C4C[C@@H](OC=O)CC[C@]4(C)[C@H]3CC[C@]12C [Compound 3] |  | 393 nm |  | 
[C-]#[N+]C1C=C2C[C@@H](OC=O)CC[C@]2(C)[C@H]2CC[C@]3(C)[C@@H]([N+]#[C-])CC[C@H]3[C@H]12 (stereo partly shown) [Compound 4] | does form an iron-isonitrile bond; also recorded: bind with the shift expected for Fe—CN—R bond formation | 435 nm |  | 
C[C@]12CC[C@H](O)CC1=CC[C@@H]1[C@@H]2CC[C@]2(C)C(c3cccnc3)=CC[C@@H]12 [abiraterone] |  |  | 424 nm | Kd ([3]; protein 200 nM, 95% CI undefined to 3.8 nM, read-out: dissociation constant estimate (tight binding equation fit)): 0.044 nM; slope of the inhibition curve ([4]; CYP17A1 progesterone hydroxylation): 1.1; IC50 fold lower than for 1 ([4]; abiraterone versus 1): 27 fold; IC50 ([4]; triplicate, four-parameter variable-slope fit, read-out: IC50, CYP17A1 progesterone hydroxylation): 47 nM
